Data reported in US20030229145A1, “Pain treatment methods and compositions” (GRUENENTHAL GMBH, priority 2000, published 2003).
Where a name gives a salt, the structure may show the parent alone. Read-outs that look alike come from different tables or passages of the source.

Experiments:
[1] = system: AMPA response of spinal neurons in the dorsal horn; test: Microiontophoresis on anaesthetized rats (evoked potentials of dorsal horn cells after application of excitatory amino acids); format: in vivo; details: for ED50: Rattus norvegicus, Neuron, read-out: ED50 of inhibition of the AMPA response; for Inhibition of the AMPA response of spinal neurons (in words): microiontophoretic NMDA, kainate
Description: (derivation of evoked ascending potentials of individual cells in the dorsal horn of the spinal cord of anaesthetized rats after microiontophoretic application of excitatory amino acids (EAAs))
Male rats (Sprague Dawley, Janvier) with a body weight of from 280 g to 350 g were used. To induce the anaesthesia, inhalation anaesthetization was carried out with 4.0-5.0% halothane in a mixture of 200 ml/min oxygen (O2) and 400 ml/min dinitrogen monoxide (N2O) in a plexiglas anaesthetization box. During the preparatory phase, the halothane concentration was reduced to 1.0-1.5%. For the rest of the experiment, the inhalation anaesthetization was then replaced by bolus application of 40 mg/kg of chloralose in 3.5% Haemaccel solution (i.v.) and maintained by continuous infusion of 20 mg/kg/2.0 ml/h of chloralose. After the induction anaesthetization (4.0-5.0% halothane, see above), the tracheal tube was fitted through a syringe cylinder (20 ml Omnifix, Luer) shortened to about 20 mm, which was placed over the mouth and nose of the animals, with a 2.5% halothane concentration. The halothane concentration was then reduced to about 1.5%. Exhaled air was extracted through a closed system. For the application of test substances, a PE-20 (1.09*0.38mm) catheter was fitted into the dorsal branch of the left V. jugularis. A PE-50 tube (0.9569 mm*0.58 mm) was inserted into the left arteria carotis as a catheter for continuously monitoring the blood pressure. For the laminectomy, the animals were then placed in the prone position. An incision was made along the midline from the nape of the neck to the pelvic region. A blood-pressure drop frequently observed following this was treated by local application of lidocaine HCl with adrenaline (xylocitin 2% with adrenaline 0.001%, Jenapharm). The superficial tissue layers on both sides of the spinal column were removed in the vicinity of the vertebral bodies from sacral 2 (S2) to thoracic 8 (Th8). The musculature associated with the vertebral bodies was also removed by careful scraping with a scalpel. The actual laminectomy begins at vertebral body L2 (lumbar 2), after removing the processus spinalis from vertebra L3, and extends into the TH8 rostral region as far as where the large dorsal veins branch off laterally and caudally. The bones of the individual vertebral bodies were carefully removed in small stages by means of fine rongeurs. The musculature around TH8/9 and L1/S2 was also removed, so that immobilization clamps could be fitted later. Exposed tissue was protected against drying by applied 0.9% strength NaCI solution or thin PVC strips. […] In addition to the blood pressure, the local blood circulation was visually assessed, a pink skin color of the paws indicating normal microcirculation. […]

AMPA receptor = test: Affinity for the AMPA receptor; format: binding
NMRI mice = test: Phenylquinone-induced writhing test on mice; format: in vivo; details: 10 min; mouse, i.v., phenylquinone i.p. 10 minutes after substance
Description: The anti-nociceptive efficacy of the compounds according to the invention was studied on mice with the phenylquinone-induced writhing test, modified after I. C. Hendershot, J. Forsaith, J. Pharmacol. Exp. Ther. 125, 237-240 (1959). Male NMRI mice with a weight of from 25-30 g were used for this purpose. 10 minutes after intravenous administration of a compound according to the invention, groups of 10 animals per substance dose were intraperitoneally given 0.3 ml/mouse of a 0.02% strength aqueous solution of phenylquinone (phenylbenzoquinone, Sigma, Deisenhofen; production of the solution with the addition of 5% ethanol and storage in a water bath at 45° C.). The animals were placed individually in observation cages. The number of pain-induced stretching movements (so-called writhing reactions =straightening of the body with stretching of the hind extremities) were counted by means of a push-button counter 5-20 minutes after the phenylquinone administration. Animals which received physiological saline solution i.v. and phenylquinone […]. were also included as a control.
All the substances were tested in the standard dose of 10 mg/kg. The percentage inhibition (% inhibition) of the writhing reactions by a substance was calculated according to the following formula:
% inhibition=100−[WR of treated animals/ WR of control×100]

Sprague Dawley rats = test: Mechanical hyperalgesia after paw incision on rats (paw incision model); format: in vivo
Description: In this model, the pain due to a wound in the vicinity of an incision on the plantar side of a hind paw of the rat is studied as a model of postoperative pain (Brennan, T. J., Vandermeulen, E. P., Gebhart, G. F., Pain (1996) 493-501). For this purpose, the retraction latency after point mechanical stimulation with an electronic von Frey filament is determined. After the paw incision, a mechanical hyperalgesia develops and remains stable over several days.
Male Sprague Dawley rats (body weight 200-300 g) are used. […]
By using an electronic von Frey filament (Digital Transducer Indicator Model 1601C, IITC Inc.), the retraction threshold of the paw, expressed in grams, after point mechanical stimulation is determined. For this purpose, the retraction threshold is measured five times per measurement point at an interval of 30 sec, and the individual median is determined, with the aid of which the average of the animal population is calculated. […]
To study the primary hyperalgesia, the retraction threshold on the ipsilateral paw is determined in the immediate vicinity of the incision, and also in the same position on the contralateral paw. […]
The Mann-Whitney U test is used for the significance calculation (p<0.05). For dose-dependent effects, the ED50 value is determined with the aid of a regression analysis.

CCCC(CC)C(N)C(=O)[O-].[Na+] (racemic)
ED50 ([1]; anaesthetized rats, spinal neurons in the dorsal horn): 60 mg/kg | Inhibition of the AMPA response of spinal neurons (in words) ([1]; anaesthetized rats): selective inhibition of the AMPA response | Affinity for the AMPA receptor (in words) (AMPA receptor): without having any AMPA affinity

CCCCCC(C)C(N)C(=O)O (racemic) [Compound 2, rac-2-amino-3-methyl-octanoic acid hydrochloride as a 1:1 D/L mixture]
ED50 (NMRI mice): 28 mg/kg

CCCC(CC)C(N)C(=O)O.Cl (racemic) [Compound 7, rac-amino-3-ethyl-hexanoic acid hydrochloride as a 1:1 D/L mixture]
% MPE, retraction threshold of the ipsilateral paw (Sprague Dawley rats; 464 mg/kg i.p.): 30% MPE (464 mg/kg i.p.)

NCC1(CC(=O)O)CCCCC1 [Gabapentin]
ED50 [1]: 106 mg/kg | Inhibition of the AMPA response of spinal neurons (in words) ([1]; anaesthetized rats): dose-dependent and selective inhibition of the AMPA response | Affinity for the AMPA receptor (in words) (AMPA receptor): no affinity for the AMPA receptor | % MPE, retraction threshold of the ipsilateral paw (Sprague Dawley rats; 100 mg/kg): 66% MPE (100 mg/kg) | ED50 (NMRI mice): 38 mg/kg
